Laboratory results published in US9169241B2, “Quinolinyloxyphenylsulfonamides” (Max-Planck-Gesellschaft Zur Forderung der Wissenschaften …, priority 2009, dated 2015).

Legend:
[1] = target: T1, wild type AXL (wtAXL) receptor tyrosine kinase (Homo sapiens, UniProt P30530); experiment: NIH-3T3-AXL cellular kinase assay (pY-AXL-ELISA); assay type: cell-based; details: NIH-3T3-AXL (clone 22) cells, serum depleted, compounds 1 h; Table Ia
T1 construct: WtAXL cDNA was cloned into vector pLXSN(ESK) and transfected into Phoenix E packaging cells; expressed in transfected cells; host or cells: NIH3T3 N7 (mouse fibroblasts), retrovirally infected, clone 22
T1 sequence (P30530 26-894): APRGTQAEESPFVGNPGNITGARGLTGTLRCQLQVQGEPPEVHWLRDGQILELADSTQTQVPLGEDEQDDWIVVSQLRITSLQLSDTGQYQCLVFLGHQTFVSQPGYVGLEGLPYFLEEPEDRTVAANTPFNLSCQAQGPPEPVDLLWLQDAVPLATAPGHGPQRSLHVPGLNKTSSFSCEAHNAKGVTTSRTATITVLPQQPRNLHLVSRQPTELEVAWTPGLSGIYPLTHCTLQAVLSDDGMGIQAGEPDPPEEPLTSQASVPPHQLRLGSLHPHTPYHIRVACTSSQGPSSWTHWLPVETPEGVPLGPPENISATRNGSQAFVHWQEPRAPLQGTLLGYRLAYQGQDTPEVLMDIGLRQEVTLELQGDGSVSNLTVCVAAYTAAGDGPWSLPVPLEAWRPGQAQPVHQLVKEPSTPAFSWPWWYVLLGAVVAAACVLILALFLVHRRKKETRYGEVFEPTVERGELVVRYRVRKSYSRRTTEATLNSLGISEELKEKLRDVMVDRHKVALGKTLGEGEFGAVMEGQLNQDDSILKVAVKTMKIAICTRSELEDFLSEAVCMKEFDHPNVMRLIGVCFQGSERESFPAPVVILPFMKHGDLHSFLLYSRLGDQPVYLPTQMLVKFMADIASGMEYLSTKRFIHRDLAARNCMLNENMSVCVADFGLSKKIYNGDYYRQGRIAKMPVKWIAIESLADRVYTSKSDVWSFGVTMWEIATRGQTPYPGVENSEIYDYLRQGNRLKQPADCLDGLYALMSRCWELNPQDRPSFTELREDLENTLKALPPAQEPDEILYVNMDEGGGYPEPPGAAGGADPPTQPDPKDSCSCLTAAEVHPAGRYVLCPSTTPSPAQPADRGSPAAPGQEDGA
Outline: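 Phospho-AXL was quantified by ELISA in lysates (4G10-biotin, streptavidin-AP, AttoPhos, 430/560 nm read at 90 min). The cells were monoclonal NIH3T3 lines stably transduced with human wtAXL, exposed to serial compound dilutions for 1 h before lysis.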

[2] = test system: Hs578T; experiment: Wound healing migration assay; assay type: cell-based; details: Homo sapiens, Hs-578T; HS578T cell line; Table Ib
Outline: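 Compound exposure at 12.5, 6.25 and 3.125 μM, with DMSO control, on scratch-wounded monolayers (150000 cells/24 well, overnight). Wound closure imaged by microscopy, fixed with crystal violet after 48 h or 72 h depending on cell line; IC50 is the concentration giving 50% wound size between t0 and t48/t72.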

SMILES	IC50 [1] [µM]	IC50 [2] [µM]
COc1cc2c(Oc3ccc(NS(=O)(=O)c4cc(F)ccc4F)cc3Cl)ccnc2cc1OCCCN1CCN(C)CC1 [Example 112, N-(3-Chloro-4-{6-methoxy-7-[3-(4-methyl-piperazin-1-yl)-propoxy]-quinolin-4-yloxy}-phenyl)-2,5-difluoro-benzenesulfonamide]	< 0.5	≤ 12.5
COc1cc2c(Oc3ccc(NS(=O)(=O)c4c(Cl)cccc4Cl)cc3F)ccnc2cc1OCCCN1CCCC(C)C1 (centres unmarked) [Example 51, 2,6-Dichloro-N-(3-fluoro-4-{6-methoxy-7-[3-(3-methyl-piperidin-1-yl)-propoxy]-quinolin-4-yloxy}-phenyl)-benzenesulfonamide]	< 0.5	≤ 12.5
COc1cc2c(Oc3ccc(NS(=O)(=O)c4ccc(C)c(F)c4)cc3F)ccnc2cc1OCCCN1CCCC(C)C1 (centres unmarked) [Example 56, 3-Fluoro-N-(3-fluoro-4-{6-methoxy-7-[3-(3-methyl-piperidin-1-yl)-propoxy]-quinolin-4-yloxy}-phenyl)-4-methyl-benzenesulfonamide]	< 0.5	≤ 12.5
COc1cc2c(Oc3ccc(NS(=O)(=O)c4ccccc4C(F)(F)F)cc3F)ccnc2cc1OCCCN(C)C [Example 100, N-{4-[7-(3-Dimethylamino-propoxy)-6-methoxy-quinolin-4-yloxy]-3-fluoro-phenyl}-2-trifluoromethyl-benzenesulfonamide]		≤ 12.5
COc1cc2c(Oc3ccc(NS(=O)(=O)c4ccc(F)cc4F)cc3F)ccnc2cc1OCCCN1CCCC(C)C1 (centres unmarked) [Example 47, 2,4-Difluoro-N-(3-fluoro-4-{6-methoxy-7-[3-(3-methyl-piperidin-1-yl)-propoxy]-quinolin-4-yloxy}-phenyl)-benzenesulfonamide]	< 0.5	≤ 12.5
COc1cc2c(Oc3ccc(NS(=O)(=O)c4ccccc4OC(F)(F)F)cc3F)ccnc2cc1OCCCN1CCCC(C)C1 (centres unmarked) [Example 45, N-(3-Fluoro-4-{6-methoxy-7-[3-(3-methyl-piperidin-1-yl)-propoxy]-quinolin-4-yloxy}-phenyl)-2-trifluoromethoxy-benzenesulfonamide]	< 0.5	≤ 12.5
COc1cc2c(Oc3ccc(NS(=O)(=O)c4cccc5ccccc45)cc3F)ccnc2cc1OCCCN1CCCC(C)C1 (centres unmarked) [Example 58, Naphthalene-1-sulfonic acid (3-fluoro-4-{6-methoxy-7-[3-(3-methyl-piperidin-1-yl)-propoxy]-quinolin-4-yloxy}-phenyl)-amide]	< 0.5	≤ 12.5
COc1cc2c(Oc3ccc(NS(=O)(=O)c4cccc(Cl)c4F)cc3F)ccnc2cc1OCCCN1CCCC(C)C1 (centres unmarked) [Example 54, 3-Chloro-2-fluoro-N-(3-fluoro-4-{6-methoxy-7-[3-(3-methyl-piperidin-1-yl)-propoxy]-quinolin-4-yloxy}-phenyl)-benzenesulfonamide]	< 0.5	≤ 12.5
COc1cc2c(Oc3ccc(NS(=O)(=O)c4c(F)cccc4F)cc3F)ccnc2cc1OCCCN1CCN(C)CC1 [Example 110, 2,6-Difluoro-N-(3-fluoro-4-{6-methoxy-7-[3-(4-methyl-piperazin-1-yl)-propoxy]-quinolin-4-yloxy}-phenyl)-benzenesulfonamide]	< 0.5	≤ 12.5
COc1cc2c(Oc3ccc(NS(=O)(=O)c4ccccc4C(F)(F)F)cc3Cl)ccnc2cc1OCCCN1CCN(C)CC1 [Example 87, N-(3-Chloro-4-{6-methoxy-7-[3-(4-methyl-piperazin-1-yl)-propoxy]-quinolin-4-yloxy}-phenyl)-2-trifluoromethyl-benzenesulfonamide]	< 0.5	≤ 12.5
COc1cc2c(Oc3ccc(NS(=O)(=O)c4cc(C)ccc4F)cc3F)ccnc2cc1OCCCN1CCCC(C)C1 (centres unmarked) [Example 55]	< 0.5	≤ 12.5
COc1cc2c(Oc3ccc(NS(=O)(=O)c4cccc(Oc5ccccc5)c4)cc3F)ccnc2cc1OCCCN1CCCCC1 [Example 10, N-{3-Fluoro-4-[6-methoxy-7-(3-piperidin-1-yl-propoxy)-quinolin-4-yloxy]-phenyl}-3-phenoxy-benzenesulfonamide]	< 0.5	≤ 12.5
COc1cc2c(Oc3ccc(NS(=O)(=O)c4cc(F)ccc4F)cc3F)ccnc2cc1OCCCN1CCCCC1 [Example 1, 2,5-Difluoro-N-{3-fluoro-4-[6-methoxy-7-(3-piperidin-1-yl-propoxy)-quinolin-4-yloxy]-phenyl}-benzenesulfonamide]		≤ 12.5
COc1cc2c(Oc3ccc(NS(=O)(=O)c4ccccc4C(F)(F)F)cc3F)ccnc2cc1OCCCN1CCCCC1C (centres unmarked) [Example 99, N-(3-Fluoro-4-{6-methoxy-7-[3-(2-methyl-piperidin-1-yl)-propoxy]-quinolin-4-yloxy}-phenyl)-2-trifluoromethyl-benzenesulfonamide]		≤ 12.5
COc1cc2c(Oc3cccc(NS(=O)(=O)c4ccccc4C(F)(F)F)c3)ccnc2cc1OCCCN1CCN(C)CC1 [Example 102, N-(3-{6-Methoxy-7-[3-(4-methyl-piperazin-1-yl)-propoxy]-quinolin-4-yloxy}-phenyl)-2-trifluoromethyl-benzenesulfonamide]		≤ 12.5

Second part, the compound after the results:

IC50 [1] [µM]	IC50 [2] [µM]	SMILES
< 0.5	≤ 12.5	COc1cc2c(Oc3ccc(NS(=O)(=O)c4cc(Cl)cc(Cl)c4OC)cc3F)ccnc2cc1OCCCN1CCCCC1 [Example 34, 3,5-Dichloro-N-{3-fluoro-4-[6-methoxy-7-(3-piperidin-1-yl-propoxy)-quinolin-4-yloxy]-phenyl}-2-methoxy-benzenesulfonamide]
< 0.5	12.5 to 50	COc1cc2c(Oc3ccc(NS(=O)(=O)c4ccccc4F)cc3F)ccnc2cc1OCCN1CCOCC1 [Example 81, 2-Fluoro-N-{3-fluoro-4-[6-methoxy-7-(2-morpholin-4-yl-ethoxy)-quinolin-4-yloxy]-phenyl}-benzenesulfonamide]
< 0.5	≤ 12.5	COc1cc2c(Oc3ccc(NS(=O)(=O)c4c(F)cccc4F)cc3F)ccnc2cc1OCCCN1CCOCC1 [Example 77, 2,6-Difluoro-N-{3-fluoro-4-[6-methoxy-7-(3-morpholin-4-yl-propoxy)-quinolin-4-yloxy]-phenyl}-benzenesulfonamide]
< 0.5	≤ 12.5	COC(=O)c1sccc1S(=O)(=O)Nc1ccc(Oc2ccnc3cc(OCCCN4CCCCC4)c(OC)cc23)c(F)c1 [Example 155, 3-{3-Fluoro-4-[6-methoxy-7-(3-piperidin-1-yl-propoxy)-quinolin-4-yloxy]-phenylsulfamoyl}-thiophene-2-carboxylic acid methyl ester]
< 0.5		COc1cc2c(Oc3ccc(NS(=O)(=O)c4cc(Cl)cc(Cl)c4OC)cc3F)ccnc2cc1OCCCN1CCN(C)CC1 [Example 35, 3,5-Dichloro-N-(3-fluoro-4-{6-methoxy-7-[3-(4-methyl-piperazin-1-yl)-propoxy]-quinolin-4-yloxy}-phenyl)-2-methoxy-benzenesulfonamide]
< 0.5	≤ 12.5	COC(=O)c1sccc1S(=O)(=O)Nc1ccc(Oc2ccnc3cc(OCCCN4CCCC(C)C4)c(OC)cc23)c(F)c1 (centres unmarked) [Example 66, 3-(3-Fluoro-4-{6-methoxy-7-[3-(3-methyl-piperidin-1-yl)-propoxy]-quinolin-4-yloxy}-phenylsulfamoyl)-thiophene-2-carboxylic acid methyl ester]
< 0.5	≤ 12.5	COC(=O)c1sccc1S(=O)(=O)Nc1ccc(Oc2ccnc3cc(OCCCN4CCC(C)CC4)c(OC)cc23)c(F)c1 [Example 156, 3-(3-Fluoro-4-{6-methoxy-7-[3-(4-methyl-piperidin-1-yl)-propoxy]-quinolin-4-yloxy}-phenylsulfamoyl)-thiophene-2-carboxylic acid methyl ester]
< 0.5	≤ 12.5	COC(=O)c1sccc1S(=O)(=O)Nc1ccc(Oc2ccnc3cc(OCCCN4CCOCC4)c(OC)cc23)c(F)c1 [Example 157, 3-{3-Fluoro-4-[6-methoxy-7-(3-morpholin-4-yl-propoxy)-quinolin-4-yloxy]-phenylsulfamoyl}-thiophene-2-carboxylic acid methyl ester]
